{
  "source": "the NIST ThermoML archive (doi:10.1016/j.jct.2006.10.006)",
  "key": {"[1]": {"experiment": "Molar enthalpy of transition or fusion", "conditions": "Crystal; DSC"}, "[2]": {"conditions": "Crystal 1; DTA"}, "[3]": {"experiment": "molar enthalpy of vaporization or sublimation", "conditions": "298.15 K; Crystal; Static calorimetry"}},
  "note": "± gives the expanded uncertainty stated by the source.",
  "data": [
    {"smiles": "CCOC(=S)NC(=O)c1cccs1", "note": "[carbamothioic acid, N-(2-thienylcarbonyl)-, O-ethyl ester]", "values": [
      {"measurement": "Molar enthalpy of transition or fusion", "setting": "[1]", "value": "5.23 ± 0.234", "unit": "kcal/mol"},
      {"measurement": "Triple point temperature", "setting": "[2]", "value": "345.9 ± 0.5", "unit": "K"},
      {"measurement": "molar enthalpy", "setting": "[3]", "value": "34.2 ± 1.43", "unit": "kcal/mol"}
    ]}
  ]
}
